Experiments:
[1] = biological target: trypsin (Sus scrofa (Pig), UniProt P00761); assay: Trypsin activity assay (chromogenic substrate); details: read-out: IC50 trypsin; 30 minutes preincubation at room temperature, substrate at Km
Method: (§3) Titration of the chromogenic substrate pryoGlu-Pro-Arg-pNA was performed for each enzyme and the resulting substrate-velocity data fit with nonlinear regression using GraphPad Prism 4 software (GraphPad, La Jolla, Calif.) to calculate Vmax and Km. […] The reactions were then followed using a kinetic microplate reader and the linear rates of increase in absorbance at 405 nm expressed as percent activity (100%×vi/vo). At least three independent experiments were performed for each enzyme. The IC50 was calculated by fitting the data to a four-parameter non-linear regression using GraphPad Prism 4.

[2] = biological target: thrombin (Bos taurus (Bovine), UniProt P00735); assay: Thrombin activity assay (chromogenic substrate); assay type: biochemical; details: 30 minutes preincubation at room temperature, substrate at Km
Method: as §3

[3] = tested on: HepG2 cells; assay: Cell cytotoxicity assay (CellTiter-Glo, ATP-luciferase); details: HepG2, 20 μM, 72 hours, compounds replenished daily
[4] = tested on: MP-1 mouse prostate epithelial cell line; assay: as above; details: MP-1, 20 μM, 72 hours, compounds replenished daily
[5] = biological target: full-length wild-type murine hepsin expressed in HEK 293FT cells (Mus musculus (Mouse), UniProt O35453); assay: Hepsin-dependent pericellular serine proteolytic activity assay; assay type: cell-based; details: overnight incubation; for pericellular proteolytic activity (in words): 20 and 50 μM; for attenuation of hepsin-dependent pericellular proteolytic activity: 50 μM, activity/expression level relative to vehicle
Method: Loading was verified via immunoblot against β-actin.
G. Pericellular Serine Proteolytic Activity Assay. […] After 3.5 hrs, transfection media was replaced with fresh media containing 20 μM or 50 μM of test compounds or solvent control (0.5% DMSO in media) and cells incubated overnight. Attached cell monolayers were then washed twice with PBS and once with assay buffer (5% CO2 equilibrated phenol-red free DMEM with 1% BSA) to remove residual serum proteases/inhibitors. Cells were then incubated in assay buffer containing 20 or 50 μM compounds for 30 minutes at 37° C. […] Percent inhibition was calculated as residual activity relative to solvent control. Matched samples were used in parallel to determine toxicity of the test compounds to HEK 293FT cells in this system using the CellTiter-Glo™ assay.
D. Inhibition of Hepsin-Dependent Pericellular Proteolytic Activity. To determine whether the identified compounds were able to inhibit cell-based hepsin activity, an assay was devised to measure hepsin-dependent pericellular serine proteolytic activity (FIG. 5A) (Raynaud et al., 1992 J Cell Physiol 151:378; Bauvois et al., 1990 Eur. J. Immunol. 20:459; Bauvois et al., 1992 Eur. J. Immunol. 22:923; Sameni et al., 2000 Neoplasia 2:496; McGowen et al., 2000 Canc. Res. 60:4771). […] Attached cell monolayers were incubated in assay buffer with peptide substrate and the reactions were allowed to proceed at 37° C. […] Activity levels were adjusted by altering hepsin expression levels to within the linear range of detection. A positive linear rate of activity was observed only for wild-type hepsin-expressing cells and was abolished in the presence of the broad spectrum serine protease inhibitor PEFAbloc.

[6] = tested on: LNCaP cells; assay: Cell cytotoxicity assay (CellTiter-Glo, ATP-luciferase); details: 20 μM, 72 hours, compounds replenished daily
[7] = biological target: recombinant human hepsin (Homo sapiens, UniProt P05981); assay: Hepsin activity assay (chromogenic substrate pyroGlu-Pro-Arg-pNA); assay type: biochemical; details: 30 minutes preincubation at room temperature, substrate at Km
Method: (§1) D. Hepsin, Trypsin and Thrombin Activity Assays.
(§2) Purified recombinant hepsin was preincubated with indicated compounds for 30 minutes at room temperature.

[8] = approximate value; cited from earlier work
[9] = tested on: recombinant human hepsin; assay: Hepsin activity assay (chromogenic substrate pyroGlu-Pro-Arg-pNA); assay type: biochemical; details: hepsin relative to trypsin and thrombin
Method: as §1, §2

[10] = biological target: hepsin (Mus musculus (Mouse), UniProt O35453); assay: Immunoblot of hepsin expression levels in compound treated HEK 293FT cells; details: 20 and 50 μM, 24 hours
Method: The membrane was blocked overnight in TBST buffer containing: 5% non-fat milk, 2% normal goat serum in 50 mM Tris-HCl, pH 8.0, 100 mM NaCl, 0.1% Tween-20. The membrane was then incubated in 3% BSA in TBST with polyclonal anti-hepsin antibody (1:1000) for two hours at room temperature, washed 3×5 minutes with TBST and incubated for one hour in 0.1% BSA in TBST containing goat-anti-rabbit-HRP secondary antibody (1:2000), washed 3×5 minutes in TBST and developed with ECL (Pierce Chemicals, Rockford, Ill.). […] Expression levels were quantified by densitometry using ImageQuantTL™ (GE Healthcare Life Sciences, Piscataway, N.J.).
As treatment with chemical compounds may alter hepsin expression level (and thereby impact pericellular proteolytic activity), hepsin levels in drug-treated cells were determined via immunoblotting (FIG. 6B).

Chain of full-length wild-type murine hepsin expressed in HEK 293FT cells (O35453 other isoform, or with tags, fused parts or gaps): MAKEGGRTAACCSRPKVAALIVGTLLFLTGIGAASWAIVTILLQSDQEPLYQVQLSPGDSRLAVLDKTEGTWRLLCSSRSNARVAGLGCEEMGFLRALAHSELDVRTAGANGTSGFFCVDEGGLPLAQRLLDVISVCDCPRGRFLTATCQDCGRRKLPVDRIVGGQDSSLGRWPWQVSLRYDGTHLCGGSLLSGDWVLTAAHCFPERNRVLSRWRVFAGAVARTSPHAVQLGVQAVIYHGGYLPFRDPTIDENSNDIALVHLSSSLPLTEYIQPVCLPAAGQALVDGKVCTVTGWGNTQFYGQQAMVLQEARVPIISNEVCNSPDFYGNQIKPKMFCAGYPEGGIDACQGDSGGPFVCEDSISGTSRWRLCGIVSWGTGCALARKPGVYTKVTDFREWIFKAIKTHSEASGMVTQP
Chain of trypsin (P00761 9-231): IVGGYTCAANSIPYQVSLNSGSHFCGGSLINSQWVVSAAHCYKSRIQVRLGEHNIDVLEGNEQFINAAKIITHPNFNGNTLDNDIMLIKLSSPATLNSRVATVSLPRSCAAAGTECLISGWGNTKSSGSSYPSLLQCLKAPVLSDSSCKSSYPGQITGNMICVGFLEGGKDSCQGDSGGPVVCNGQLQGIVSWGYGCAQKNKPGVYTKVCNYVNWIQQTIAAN
Chain of recombinant human hepsin (Homo sapiens, UniProt P05981) (P05981 1-162 limits assumed): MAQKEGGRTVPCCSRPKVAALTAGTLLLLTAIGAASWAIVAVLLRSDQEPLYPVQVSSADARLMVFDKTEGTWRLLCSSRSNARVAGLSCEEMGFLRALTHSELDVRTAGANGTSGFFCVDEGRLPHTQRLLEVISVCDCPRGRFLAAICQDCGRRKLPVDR
Chain of recombinant human hepsin (Homo sapiens, UniProt P05981) (P05981 163-417 limits assumed): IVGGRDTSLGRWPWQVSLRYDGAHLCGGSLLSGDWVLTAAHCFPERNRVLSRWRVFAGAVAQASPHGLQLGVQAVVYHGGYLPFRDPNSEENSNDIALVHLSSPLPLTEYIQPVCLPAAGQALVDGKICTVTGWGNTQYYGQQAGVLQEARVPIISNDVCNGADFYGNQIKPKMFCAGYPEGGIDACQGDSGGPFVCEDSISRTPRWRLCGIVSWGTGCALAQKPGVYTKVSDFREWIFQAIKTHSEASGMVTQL

| Structure (SMILES) | IC50 [1] [µM] | IC50 [2] [µM] | cellular toxicity (cell viability) [3] | cellular toxicity (cell viability) [4] | pericellular proteolytic activity (in words) [5] | cellular toxicity (cell viability) [6] | IC50 [7] [nM] | logP [8] | attenuation of hepsin-dependent pericellular proteolytic activity [5] [%] | attenuation of hepsin-dependent pericellular proteolytic activity ([5]; listed as Meclizine) [%] | specificity for hepsin [9] [fold] | hepsin expression levels [10] |
| --- | --- | --- | --- | --- | --- | --- | --- | --- | --- | --- | --- | --- |
| CC(C)(Sc1cc(C(C)(C)C)c(O)c(C(C)(C)C)c1)Sc1cc(C(C)(C)C)c(O)c(C(C)(C)C)c1 [Compound 14, 4,4′-[propane-2,2-diylbis(sulfanediyl)]bis(2,6-di-tert-butylphenol), reference compound] | 33.5 ± 11.5 | > 20 | limited or no cytotoxicity | limited or no cytotoxicity | not have shown an ability to reduce pericellular serine protease activity | limited or no cytotoxicity | 430 ± 50 | ~10 |  |  |  |  |
| Cc1cccc(CN2CCN(C(c3ccccc3)c3ccc(Cl)cc3)CC2)c1 (stereo not shown) [Compound 13, 1-[(4-chlorophenyl)(phenyl)methyl]-4-(3-methylbenzyl)piperazine, reference compound] | > 20 | > 20 | limited or no cytotoxicity | limited or no cytotoxicity | attenuated pericellular proteolytic activity in a dose dependent manner | limited or no cytotoxicity | 2020 ± 370 |  | ~25 | 30 | > 10 | without substantially affecting hepsin expression levels |

Source: patent publication US9182402B2, “Hepsin inhibitors” (Fred Hutchinson Cancer Research Center, priority 2008, dated 2015)
